Test results: patent publication US5332427A, “Wood preservatives” (priority 1991, dated 1994)

How the values were obtained:
[1] = Discoloration (coloration) of oil formulation-coated filter paper under irradiation with light (Test Example 1); type: physicochemical; set-up: key: -: No discoloration (coloration); +: Slight discoloration (coloration); ++: Prominent discoloration (coloration); conditions: 1% oil formulation, 100 ml per m^2 of filter paper, light of 6000-7000 lux for 5 minutes
Method: A 1% oil formulation of each of the test compounds shown in Table 2 was prepared according to Formulation Example 1. The oil formulation was coated on a filter paper having a diameter of 5.5 cm in an amount of 100 ml of the oil formulation per m^2 of the filter paper and the filter paper was air-dried. The filter paper thus prepared was subjected to irradiation with light of 6000-7000 lux for 5 minutes and then, taken out, after which the degree of discoloration (coloration) was observed. The degree of discoloration (coloration) was determined based on the following standard.
No discoloration (coloration): -
Slight discoloration (coloration): +
Prominent discoloration (coloration): ++

Tyromyces palustris [2] = assay: Mycelium growth inhibition on potato dextrose agar medium, Tyromyces palustris (Test Example 2); type: cell-based; conditions: four days after inoculation
Method: (§1) Each of the test compounds shown in Tables 3 and 4 was dissolved in a definite amount of dimethylsulfoxide to prepare a 1% W/V solution. A definite amount of the resulting formulation was added to a potato dextrose agar medium just after sterilization (using a moist heat sterilizer) and about 20 cc of the mixture was poured into a Petri dish of 9 cm in diameter and the Petri dish was placed at room temperature. After the medium was solidified, mycelium from a colony of Coriolus versicolor or Tyromyces palustris cultured previously was punched with a cork borer of 5 mm in diameter and the mycelium was inoculated at the center of the test medium. Four days after the inoculation, the diameter of colony extended from the inoculation point was measured and the percentage of mycelium growth inhibition was calculated according to the following equation: [formula]

Coriolus versicolor [3] = assay: Wood weight reduction after weather resistance operation, test method of Japan Wood Preservation Association, Coriolus versicolor/Japanese beech (Test Example 3); conditions: oil formulation, Japanese beech, 30 weather resistance cycles, 8 weeks
Method: (§2) An oil formulation of each of the test compounds shown in Table 5 was prepared according to Formulation Example 1 and was tested based on the test method of Japan Wood Preservation Association. The summary of the test method is as follows:
(§3) The cut end surfaces of a wooden piece of Japanese beech or Japanese cedar (thickness: 5 mm, width: 20 mm, length: 40 mm; the surface of 40×20 mm is of straight grain) were sealed with an epoxy resin and the wooden piece was impregnated with the oil formulation (110±10 g/m^2 surface area), and thereafter air-dried for 20 days to prepare a test specimen. The test specimen was dipped in still water [water:wooden piece=10:1 (volume ratio)] at 25°±3° C. for 5 hours, and then the water was volatilized at 40±2° C. for 19 hours. This weather resistance operation was repeated 30 times. The test specimen after the weather resistance operation was dried at 60°±2° C. for 48 hours and then placed in a desicator for about 30 minutes, after which the weight (W3) of the test specimen was measured. The test described above was repeated for 9 wooden pieces. The test specimen was sterilized and then, placed in a culture vial in which wood rotting fungi (Coriolus versicolor/Japanese beech, Tyromyces palustris/Japanese cedar) were being cultured, in which cultivation was effected at 26°±2° C. at a humidity of 80% for 8 weeks. After 8 weeks, the test specimen was taken out of the culture vial and the mycelium and other extraneous matters were removed therefrom, after which the test specimen was dried at 60°±2° C. for 48 hours and placed in a desicator for about 30 minutes. Thereafter, the weight (W4) of the test specimen was measured. The weight reduction percentage was calculated according to the following equation: [formula]

Coriolus versicolor [4] = assay: Mycelium growth inhibition on potato dextrose agar medium, Coriolus versicolor (Test Example 2); type: cell-based; conditions: four days after inoculation
Method: as §1

Tyromyces palustris [5] = assay: Wood weight reduction after weather resistance operation, test method of Japan Wood Preservation Association, Tyromyces palustris/Japanese cedar (Test Example 3); conditions: oil formulation, Japanese cedar, 30 weather resistance cycles, 8 weeks
Method: as §2, §3

| Molecule | Degree of discoloration (coloration) [1] | Percentage of growth inhibition for Tyromyces palustris (Tyromyces palustris [2]; 1 ppm) [Percentage] | Percentage of growth inhibition for Tyromyces palustris (Tyromyces palustris [2]; 2 ppm) [Percentage] | Percentage of growth inhibition for Tyromyces palustris (Tyromyces palustris [2]; 4 ppm) [Percentage] | Average weight reduction percentage (Coriolus versicolor [3]; concentration 1.0%) [%] | Percentage of growth inhibition for Coriolus versicolor (Coriolus versicolor [4]; 1 ppm) [Percentage] | Percentage of growth inhibition for Coriolus versicolor (Coriolus versicolor [4]; 2 ppm) [Percentage] | Percentage of growth inhibition for Coriolus versicolor (Coriolus versicolor [4]; 4 ppm) [Percentage] | Average weight reduction percentage (Tyromyces palustris [5]; concentration 1.0%) [%] | Average weight reduction percentage (Coriolus versicolor [3]; concentration 0.5%) [%] | Average weight reduction percentage (Tyromyces palustris [5]; concentration 0.5%) [%] |
| --- | --- | --- | --- | --- | --- | --- | --- | --- | --- | --- | --- |
| Clc1ccc(OCOCC#CI)cc1 [Compound (C), 4-Chlorophenyl-3-iodopropargyl formal] | ++ | 77.0 | 98.6 | 100 | 1.1 | 68.2 | 88.7 | 97.9 | 0.34 |  |  |
| CC(C)(C)C(O)/C(=C\c1ccc(Cl)cc1)n1cncn1 (single isomer, unassigned; (-)) [Compound (2), (-)-(E)-1-(4-chlorophenyl)-4,4-dimethyl-2-(1,2,4-triazol-1-yl)-1-penten-3-ol] | - | 94.6 | 98.8 | 100 |  | 85.3 | 87.2 | 93.9 |  |  |  |
| CCOC(=O)OCC(I)=C(Br)I [Compound (A), 3-Bromo-2,3-diiodo-2-propenylethyl carbonate] |  | 26.6 | 43.0 | 63.3 | 3.9 | 20.0 | 41.7 | 72.8 | 3.1 |  |  |
| 3-Iodo-2-propenylbutyl carbamate [Compound (B)] | + | 80.5 | 88.7 | 100 | 7.6 | 81.3 | 91.9 | 100 | 0.78 |  |  |
| CC(C)(C)C(O)/C(=C\c1ccc(Cl)cc1Cl)n1cncn1 (single isomer, unassigned; (-)) [Compound (1), (-)-(E)-1-(2,4-dichlorophenyl)-4,4-dimethyl-2-(1,2,4-triazol-1-yl)-1-penten-3-ol] | - | 79.1 | 93.0 | 95.6 | 0.64 | 86.1 | 93.9 | 98.3 | 0.19 | 0.70 | 0.25 |
